Several values for one entry are separate records, joined by “and”; a condition that tells them apart may be missing. Identical values can stand only once.
Assays:
[1] = test system: transgenic Arabidopsis thaliana plants expressing wildtype or mutated PPO; experiment: Greenhouse tolerance test of transgenic T1 Arabidopsis plants (phytotox / injury rating 0-100); type: in vivo; conditions: +1% MSO
[2] = test system: transgenic soybean expressing mutated PPO; experiment: Soybean T0 cuttings, greenhouse spray test (injury score 0-9, 1 week after treatment); type: in vivo, Glycine max; conditions: for Injury score from 0-9: soybean T0 cuttings, 1 week after treatment
From the text: For testing of T0 plants, cuttings can be used. In the case of soybean plants, an optimal shoot for cutting is about 7.5 to 10 cm tall, with at least two nodes present. Each cutting is taken from the original transformant (mother plant) and dipped into rooting hormone powder (indole-3-butyric acid, IBA). The cutting is then placed in oasis wedges inside a bio-dome. Wild type cuttings are also taken simultaneously to serve as controls. The cuttings are kept in the bio-dome for 5-7 days and then transplanted to pots and then acclimated in the growth chamber for two more days. Subsequently, the cuttings are transferred to the greenhouse, acclimated for approximately 4 days, and then subjected to spray tests as indicated. Depending on the species, the plants are kept at 10-25° C. or 20-35° C. The test period extends over 3 weeks. During this time, the plants are tended and their response to the individual treatments is evaluated. Herbicide injury evaluations are taken at 2 and 3 weeks after treatment. Plant injury is rated on a scale of 0% to 100%, 0% being no injury and 100% being complete death.
Soybean cv Jake was transformed as previously described by Siminszky et al., Phytochem Rev. 5:445-458 (2006). After regeneration, transformants were transplanted to soil in small pots, placed in growth chambers (16 hr day/8 hr night; 25° C. day/23° C. night; 65% relative humidity; 130-150 microE m-2 s-1) and subsequently tested for the presence of the T-DNA via Taqman analysis. After a few weeks, healthy, transgenic positive, single copy events were transplanted to larger pots and allowed to grow in the growth chamber. An optimal shoot for cutting was about 3-4 inches tall, with at least two nodes present. Each cutting was taken from the original transformant (mother plant) and dipped into rooting hormone powder (indole-3-butyric acid, IBA). The cutting was then placed in oasis wedges inside a bio-dome. The mother plant was taken to maturity in the greenhouse and harvested for seed. Wild type cuttings were also taken simultaneously to serve as negative controls. The cuttings were kept in the bio-dome for 5-7 days and then transplanted to 3 inch pots and then acclimated in the growth chamber for two more days. […] Herbicide injury evaluations were taken at 2, 7, 14 and 21 days after treatment. Results are shown in Tables 11a-11i, and FIGS. 5, 6, and 7.
The following gives a definition of the injury scores measured above: […]

[3] = test system: transgenic soybean expressing mutated PPO; experiment: Soybean segregating T1 individuals, greenhouse spray test (injury 0-9); type: in vivo, Glycine max; conditions: Saflufenacil 150 g ai/ha, 1 week after treatment
[4] = test system: transgenic Arabidopsis thaliana plants expressing wildtype or mutated PPO; experiment: Germination / growth inhibition assay of transgenic Arabidopsis T2 seeds in 48-well plates; conditions: growth inhibition seven to ten days after seeding

## CC(C)N(C)S(=O)(=O)NC(=O)c1cc(-n2c(=O)cc(C(F)(F)F)n(C)c2=O)c(F)cc1Cl [Saflufenacil, saflufenacil]
[1]; non-transgenic Arabidopsis, POST, 7 DAT, 75 g ai/ha
  Plant growth injury, scale 0-100, 100 is 100% damage: 98%
[1]; non-transgenic Arabidopsis, POST, 7 DAT, 150 g ai/ha
  Plant growth injury, scale 0-100, 100 is 100% damage: 98%
[1]; non-transgenic Arabidopsis, POST, 7 DAT, 300 g ai/ha
  Plant growth injury, scale 0-100, 100 is 100% damage: 98%
[1]; Ø F420V 1, POST, 7 DAT, 75 g ai/ha
  Plant growth injury, scale 0-100, 100 is 100% damage: 39%
[1]; Ø F420V 1, POST, 7 DAT, 150 g ai/ha
  Plant growth injury, scale 0-100, 100 is 100% damage: 60%
[1]; Ø F420V 1, POST, 7 DAT, 300 g ai/ha
  Plant growth injury, scale 0-100, 100 is 100% damage: 77%
[1]; Ø F420V 1 to 3, 75 g ai/ha
  Plant growth injury, scale 0-100, 100 is 100% damage: 42%
[1]; Ø F420V 1 to 3, 150 g ai/ha
  Plant growth injury, scale 0-100, 100 is 100% damage: 60%
[1]; Ø F420V 1 to 3, 300 g ai/ha
  Plant growth injury, scale 0-100, 100 is 100% damage: 76%
[1]; Ø F420V 2, POST, 7 DAT, 75 g ai/ha
  Plant growth injury, scale 0-100, 100 is 100% damage: 36%
[1]; Ø F420V 2, POST, 7 DAT, 150 g ai/ha
  Plant growth injury, scale 0-100, 100 is 100% damage: 55%
[1]; Ø F420V 2, POST, 7 DAT, 300 g ai/ha
  Plant growth injury, scale 0-100, 100 is 100% damage: 72%
[1]; Ø F420V 3, POST, 7 DAT, 75 g ai/ha
  Plant growth injury, scale 0-100, 100 is 100% damage: 51%
[1]; Ø F420V 3, POST, 7 DAT, 150 g ai/ha
  Plant growth injury, scale 0-100, 100 is 100% damage: 66%
[1]; Ø F420V 3, POST, 7 DAT, 300 g ai/ha
  Plant growth injury, scale 0-100, 100 is 100% damage: 78%
[1]; Ø R128A, F420V 1, POST, 7 DAT, 75 g ai/ha
  Plant growth injury, scale 0-100, 100 is 100% damage: 16%
[1]; Ø R128A, F420V 1, POST, 7 DAT, 150 g ai/ha
  Plant growth injury, scale 0-100, 100 is 100% damage: 18%
[1]; Ø R128A, F420V 1, POST, 7 DAT, 300 g ai/ha
  Plant growth injury, scale 0-100, 100 is 100% damage: 22%
[1]; Ø R128A, F420V 1 to 3, 75 g ai/ha
  Plant growth injury, scale 0-100, 100 is 100% damage: 18%
[1]; Ø R128A, F420V 1 to 3, 150 g ai/ha
  Plant growth injury, scale 0-100, 100 is 100% damage: 20%
[1]; Ø R128A, F420V 1 to 3, 300 g ai/ha
  Plant growth injury, scale 0-100, 100 is 100% damage: 21%
[1]; Ø R128A, F420V 2, POST, 7 DAT, 75 g ai/ha
  Plant growth injury, scale 0-100, 100 is 100% damage: 22%
[1]; Ø R128A, F420V 2, POST, 7 DAT, 150 g ai/ha
  Plant growth injury, scale 0-100, 100 is 100% damage: 24%
[1]; Ø R128A, F420V 2, POST, 7 DAT, 300 g ai/ha
  Plant growth injury, scale 0-100, 100 is 100% damage: 22%
[1]; Ø R128A, F420V 3, POST, 7 DAT, 75 g ai/ha
  Plant growth injury, scale 0-100, 100 is 100% damage: 18%
[1]; Ø R128A, F420V 3, POST, 7 DAT, 150 g ai/ha
  Plant growth injury, scale 0-100, 100 is 100% damage: 18%
[1]; Ø R128A, F420V 3, POST, 7 DAT, 300 g ai/ha
  Plant growth injury, scale 0-100, 100 is 100% damage: 19%
[1]; Ø non-transgenic Arabidopsis, POST, 7 DAT, 75 g ai/ha
  Plant growth injury, scale 0-100, 100 is 100% damage: 98%
[1]; Ø non-transgenic Arabidopsis, POST, 7 DAT, 150 g ai/ha
  Plant growth injury, scale 0-100, 100 is 100% damage: 98%
[1]; Ø non-transgenic Arabidopsis, POST, 7 DAT, 300 g ai/ha
  Plant growth injury, scale 0-100, 100 is 100% damage: 98%
[2]; Soy T0 AmtuPPX2L_R128L_F420V event 1, greenhouse, 100 g ai/ha
  injury score 1 WAT: 4
[2]; Soy T0 AmtuPPX2L_R128L_F420V event 1, greenhouse, 200 g ai/ha
  injury score 1 WAT: 6
[2]; Soy T0 AmtuPPX2L_R128L_F420V event 2, greenhouse, 100 g ai/ha
  injury score 1 WAT: 1
[2]; Soy T0 AmtuPPX2L_R128L_F420V event 2, greenhouse, 200 g ai/ha
  injury score 1 WAT: 2
[2]; AmtuPPX2L (10 events), Kixor 12.5 + 1% MSO
  Injury score from 0-9: 2
[2]; AmtuPPX2L (10 events), Kixor 25 + 1% MSO
  Injury score from 0-9: 4
[2]; AmtuPPX2L (10 events), Kixor 50 + 1% MSO
  Injury score from 0-9: 7
[2]; AmtuPPX2L_F420L (7 events), Kixor 12.5 + 1% MSO
  Injury score from 0-9: 1
[2]; AmtuPPX2L_F420L (7 events), Kixor 25 + 1% MSO
  Injury score from 0-9: 0
[2]; AmtuPPX2L_F420L (7 events), Kixor 50 + 1% MSO
  Injury score from 0-9: 0
[2]; AmtuPPX2L_F420M (8 events), Kixor 25 + 1% MSO
  Injury score from 0-9: 0
[2]; AmtuPPX2L_F420M (8 events), Kixor 50 + 1% MSO
  Injury score from 0-9: 3
[2]; AmtuPPX2L_F420M (8 events), Kixor 100 + 1% MSO
  Injury score from 0-9: 3
[2]; AmtuPPX2L_R128A_F420I (9 events), Kixor 200 + 1% MSO
  Injury score from 0-9: 1
[2]; AmtuPPX2L_R128A_F420L (6 events), Kixor 25 + 1% MSO
  Injury score from 0-9: 0
[2]; AmtuPPX2L_R128A_F420L (6 events), Kixor 50 + 1% MSO
  Injury score from 0-9: 1
[2]; AmtuPPX2L_R128A_F420L (6 events), Kixor 100 + 1% MSO
  Injury score from 0-9: 1
[2]; AmtuPPX2L_R128A_F420M (7 events), Kixor 100 + 1% MSO
  Injury score from 0-9: 2
[2]; AmtuPPX2L_R128A_F420M (7 events), Kixor 200 + 1% MSO
  Injury score from 0-9: 2
[2]; AmtuPPX2L_R128A_F420V (14 events), Kixor 100 + 1% MSO
  Injury score from 0-9: 2
[2]; AmtuPPX2L_R128A_F420V (14 events), Kixor 200 + 1% MSO
  Injury score from 0-9: 2
[2]; AmtuPPX2L_dG210 (13 events), Kixor 25 + 1% MSO
  Injury score from 0-9: 1
[2]; AmtuPPX2L_dG210 (13 events), Kixor 50 + 1% MSO
  Injury score from 0-9: 2
[2]; AmtuPPX2L_dG210 (13 events), Kixor 100 + 1% MSO
  Injury score from 0-9: 1
[2]; AmtuPPX2L_dG210_R128L (12 events), Kixor 25 + 1% MSO
  Injury score from 0-9: 0
[2]; AmtuPPX2L_dG210_R128L (12 events), Kixor 50 + 1% MSO
  Injury score from 0-9: 1
[2]; AmtuPPX2L_dG210_R128L (12 events), Kixor 100 + 1% MSO
  Injury score from 0-9: 1
[2]; NitabPPX2 (13 events), Kixor 12.5 + 1% MSO
  Injury score from 0-9: 3
[2]; NitabPPX2 (13 events), Kixor 25 + 1% MSO
  Injury score from 0-9: 6
[2]; NitabPPX2 (13 events), Kixor 50 + 1% MSO
  Injury score from 0-9: 9
[2]; NitabPPX2_R98A_F392V (9 events), Kixor 50 + 1% MSO
  Injury score from 0-9: 0
[2]; NitabPPX2_R98A_F392V (9 events), Kixor 100 + 1% MSO
  Injury score from 0-9: 2
[2]; NitabPPX2_R98A_F392V (9 events), Kixor 200 + 1% MSO
  Injury score from 0-9: 2
[2]; wild type Jake variety, Kixor 12.5 + 1% MSO
  Injury score from 0-9: 9
[2]; wild type Jake variety, Kixor 25 + 1% MSO
  Injury score from 0-9: 9
[2]; wild type Jake variety, Kixor 50 + 1% MSO
  Injury score from 0-9: 9
[2]; wild type Jake variety, Kixor 100 + 1% MSO
  Injury score from 0-9: 9
[2]; wild type Jake variety, Kixor 200 + 1% MSO
  Injury score from 0-9: 9
[3]; SDS10791 AmtuPPX2L R128A_F420I
  injury (0-9 point scale): 1 (2×) and 2 and 0 and 9 (4×)
[3]; SDS-10642 AmtuPPX2L R128A_F420L
  injury (0-9 point scale): 0 (6×) and 1 (2×)
[3]; SDS-10648 AmtuPPX2L R128A_F420I
  injury (0-9 point scale): 3 and 4 (3×) and 5 (3×) and 6
[3]; SDS-10652 AmtuPPX2L L397D_F420V
  injury (0-9 point scale): 3 (3×) and 5 (2×) and 4 (2×) and 6
[3]; SDS-10787 AmtuPPX2L R128A_F420L
  injury (0-9 point scale): 6 and 5 and 4 (4×) and 0 and 9
[3]; SDS-10985 AmtuPPX2L R128A_F420M
  injury (0-9 point scale): 0 (3×) and 1 (2×) and 3 and 2
[3]; SDS-10990 AmtuPPX2L R128A_F420M
  injury (0-9 point scale): 3 (4×) and 4 and 9 and 0 and 1
[3]; SDS-11034 AmtuPPX2L R128A_F420V
  injury (0-9 point scale): 0 (5×) and 5 and 1 and 2
[3]; wild type
  injury (0-9 point scale): 9
[4]; transgenic Arabidopsis AMATU_PPO2_F420I
  Relative tolerance rate as compared to a non-transgenic Arabidopsis plant (non-transgenic = 1.0): 80
[4]; transgenic Arabidopsis AMATU_PPO2_F420L
  Relative tolerance rate as compared to a non-transgenic Arabidopsis plant (non-transgenic = 1.0): 192
[4]; transgenic Arabidopsis AMATU_PPO2_F420M
  Relative tolerance rate as compared to a non-transgenic Arabidopsis plant (non-transgenic = 1.0): 168
[4]; transgenic Arabidopsis AMATU_PPO2_R128A_F420I
  Relative tolerance rate as compared to a non-transgenic Arabidopsis plant (non-transgenic = 1.0): 1200
[4]; transgenic Arabidopsis AMATU_PPO2_R128A_F420L
  Relative tolerance rate as compared to a non-transgenic Arabidopsis plant (non-transgenic = 1.0): 1200
[4]; transgenic Arabidopsis AMATU_PPO2_R128A_F420M
  Relative tolerance rate as compared to a non-transgenic Arabidopsis plant (non-transgenic = 1.0): 1160
[4]; transgenic Arabidopsis AMATU_PPO2_R128L
  Relative tolerance rate as compared to a non-transgenic Arabidopsis plant (non-transgenic = 1.0): 160
[4]; transgenic Arabidopsis AMATU_PPO2_dG210
  Relative tolerance rate as compared to a non-transgenic Arabidopsis plant (non-transgenic = 1.0): 100
[4]; transgenic Arabidopsis AMATU_PPO2_dG210_R128L
  Relative tolerance rate as compared to a non-transgenic Arabidopsis plant (non-transgenic = 1.0): 1200
[4]; transgenic Arabidopsis AMATU_PPO2_wt
  Relative tolerance rate as compared to a non-transgenic Arabidopsis plant (non-transgenic = 1.0): 10

Source: patent US11866720B2, “Transgenic or non-transgenic plants with mutated protoporphyrinogen oxidase having increased tolerance to herbicides” (priority 2013, dated 2024)
